Laboratory results reported in US9339477B2, “Antimicrobial composition” (Rohm and Haas Company, priority 2011, dated 2016).

What was measured:
Type in all cases: cell-based
[1] = tested on: Escherichia coli (10536 strain); assay: Antimicrobial efficacy, 15 seconds contact suspension test with plate count (Examples 1 and 3); conditions: for MBC (minimum biocidal concentration): Example 1 medium, lowest concentration giving complete kill after 15 seconds, upper boundary
Description: The efficacies of antimicrobial agents can be usefully compared by determining the Minimum Biocidal Concentration (MBC). The MBC is defined as the lowest absolute concentration of the particular active that provides complete kill (zero bacterial growth).
Antimicrobial efficacy is tested against a representative pathogenic bacterial organism, Gram negative Escherichia coli. Concentrations of actives are expressed in terms of the percentage weight/volume (% w/v) throughout Example 1.
An overnight culture of Escherichia coli (10536 strain) was prepared in 50 ml total volume of TSB broth, grown for ca. 18 hrs at 37° C. and shaken at 150 rpm. 1 ml of this overnight E. coli culture was transferred to 50 ml of fresh TSB broth and incubated at 37° C. at 150 rpm for ca. 4 hours. This culture was separated into equal volumes and centrifuged at 4000 rpm for 15 minutes, washed with sterile saline (0.85% NaCl), centrifuged once more and re-suspended in saline to give a final concentration of 0.8 OD620 equivalent to about 10^8 cells per milliliter for this particular organism. Here, OD620 indicates the absorbance of a sample in a cuvette of 1.0 cm path length at a wavelength of 620 nm. This bacterial stock was used for assaying against antimicrobial actives (in triplicate).
The following assay describes the testing of 8 materials using 6 dilutions across half of a 96-well micro titre plate (MTP). Using this approach it is possible to assay 16 actives (without replicates) with one full dilution plate, replicating this set up in two halves of the plate columns, 1-6 and 7-12.
1M solutions of the test actives were prepared in dimethylsulphoxide (DMSO).
Aliquots (270 μl) of the materials at 1.11 times the final concentration were dispensed into the wells of the MTP along one column (A1-H1). This MTP was labelled as the “Screening plate”.
In another MTP, labelled as the “Dilution plate”, 270 μl of D/E neutralising solution from DIFCO Composition was added to column 1. The composition of the neutralising solution was as follows: pancreatic digest of casein, 5.0 g/L; Yeast Extract, 2.5 g/L; Dextrose, 10 g/L, sodium thioglycollate, 1.0 g/L, sodium thiosulphate, 6.0 g/L; sodium bisulphite, 2.5 g/L; Polysorbate 80, 5.0 g/L; lecithin 7.0 g/L; bromocresol purple, 0.02 g/L with a pH in the range 7.6±0.2.
270 μl of tryptone diluent solution was added to all the remaining wells of the Dilution MTP (columns 2-6). […]

[2] = tested on: Escherichia coli (E. coli—ATCC #10536); assay: High resolution MBC synergy assay, microtiter plate, phosphate buffer containing 35% dipropylene glycol (Example 2); conditions: for ΣFBC: for the Ca/Cb pair of the same table line; for MBC of component alone (MBCA, MBCB): complete kill in 15 seconds, 35% DPG phosphate buffer
Description: The materials were sourced in the same way as for Example 1. Synergy tests were conducted using standard microtiter plate assays with phosphate buffer containing 35% dipropylene glycol (DPG). […] The MBC plate was inoculated one column at a time with the test microorganism. An aliquot of the inoculated well was transferred at 15 seconds to a plate containing a neutralizing agent (D/E Neutralizing Broth), mixed and held for 5 minutes before being transferred to a growth plate containing trypticase soy broth (TSB). The TSB plate was incubated at 37° C. and read for the presence/absence of growth at 24 hours. […] This microorganism is representative of natural contaminants in many consumer and industrial applications.

[3] = tested on: Escherichia coli (E. coli—ATCC #10536); assay: Automated assessment of efficacy in surfactant base, DeltaOD in D/E quench (Example 4); conditions: for MBC: in 2.85% sodium cocoyl glycinate + 1.85% sodium lauroamphoacetate solution at pH 10; for 15 second bactericidal efficacy in combination with thymol: in combination with thymol at concentrations lower than their MBC, same surfactant formulation, all 4 or 3 replicates, respectively
Description: In these examples, the efficacy of combinations of thymol and propen-2-yl-methyl-cyclohexanols of the invention were tested in a surfactant cleansing formulation comprising 2.85% sodium cocoyl glycinate and 1.85% sodium lauroamphoacetate. This corresponds to a 50% in use dilution with water of a typical neat formulation containing 5.7% cocoyl glycinate and 3.7% % sodium lauroamphoacetate during hand washing. Solutions were prepared such that the concentrations of the surfactant components and test actives were 1.1 times the final desired concentration in order to allow for dilution with the bacterial inoculum in the test. The solutions were manually adjusted to pH 10.0 by dropwise addition of sodium hydroxide solution, as measured with a pH meter at ambient temperature. Solutions of the thymol and/or propen-2-yl-methyl-cyclohexanols of the invention were prepared at a maximum of 24 hours before testing. The same thymol and propen-2-yl-methyl-cyclohexanols were tested as in Example 1.
The efficacy of the combinations of the present invention was determined against the same bacterium as in Example 1, Escherichia coli (E. coli—ATCC #10536), at a concentration of approximately 1×10^8 bacteria per mL.
Tests were conducted using standard microtiter plate assays using an automated liquid handling system. 270 μl of the surfactant test solution was pipetted into each well of the microtitre plate (Nunc F Gamma Irradiated 96F untreated microtitre plates of clear polystyrene) and 30 μl of the bacterial suspension was then added. After exactly 15 seconds of bacterial exposure, a 30 μl volume of bacterial cells was withdrawn and transferred to 270 μl of D/E quench solution. After 5 minutes in the D/E quench, the optical density (OD) was measured for each plate in turn at two specific wavelengths (450 nm and 590 nm). These provide a dual check of antimicrobial activity, as the OD450 reading is specific for the yellow colour of D/E quench when bacterial growth is observed, whereas OD590 is specific for the initial purple colour of the D/E quench which is retained if no bacterial growth is observed. […] Delta OD values were calculated by subtracting […] at time=16 hours. […] To identify antibacterially efficacious systems (those preventing appreciable bacterial growth after incubation), the following threshold changes in OD readings have been adopted: if (1). OD450 increases by less than 0.2 absorbance unit (AU) on incubation and (2). […] The number of replicate wells showing either bacterial growth or no growth is also readily assessed by eye by following the colour change. […]
In each case, binary mixtures were assessed in the weight to weight ratio of thymol to propen-2-yl-methyl-cyclohexanols of 1:2.5.

| Structure (SMILES) | MBC (minimum biocidal concentration) [1] | ΣFBC ([2]; Table 7) | MBC of component alone (MBCA, MBCB) ([2]; Table 7 series) | MBC [3] | 15 second bactericidal efficacy in combination with thymol [3] | ΣFBC ([2]; Table 8) | MBC of component alone (MBCA, MBCB) ([2]; Table 8 series) | MBC ([1]; Example 3, protocol of Example 1) | reduction of thymol concentration required for complete kill ([1]; combination with […] w/v 2-methyl-5-(propen-2-yl)-cyclohexanol versus thymol in isolation) |
| --- | --- | --- | --- | --- | --- | --- | --- | --- | --- |
| C=C(C)C1CCC(C)C(O)C1 (stereo not drawn) [2-methyl-5-(propen-2-yl)-cyclohexanol] | 0.3 % w/v | 1.00 | 0.5 weight % | >0.5 % w/v | complete kill |  |  |  |  |
| C=C(C)[C@@H]1CC[C@@H](C)C[C@H]1O [5-methyl-2-(propen-2-yl)-cyclohexanol, (1R,2S,5R)-5-methyl-2-(propen-2-yl)-cyclohexanol] | 0.3 % w/v |  |  | >0.5 % w/v | complete kill | 1.00 | 0.5 weight % |  |  |
| C=C(C)[C@@H]1CC[C@@H](C)[C@@H](O)C1 [(1S,2R,5R)-2-methyl-5-(1-methylethenyl)-cyclohexanol] |  |  |  |  |  |  |  | 0.3 % w/v |  |
| Cc1ccc(C(C)C)c(O)c1 [thymol, 2-isopropyl-5-methylphenol, reference compound] |  | 1.00 | 0.2 weight % |  |  | 1.00 |  |  | 4 fold |
